Test results as given in US10344025B2, “GLS1 inhibitors for treating disease” (Board of Regents, The University of Texas System, priority 2014, dated 2019).

Experiments:
[1] = target: purified recombinant human GAC (GLS1) (Homo sapiens (Human), UniProt O94925); experiment: GLS1 Enzymatic Activity Assay (dual-coupled enzymatic assay, resorufin/Amplex UltraRed readout); assay type: biochemical;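 note: glutamate from GAC coupled via glutamate oxidase and peroxidase to resorufin, read as fluorescence (ex 530, em 590 nm) kinetically or at 20 min, four-parameter logistic IC50 fit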
purified recombinant human GAC (GLS1), sequence (O94925 other isoform, or with tags, fused parts or gaps): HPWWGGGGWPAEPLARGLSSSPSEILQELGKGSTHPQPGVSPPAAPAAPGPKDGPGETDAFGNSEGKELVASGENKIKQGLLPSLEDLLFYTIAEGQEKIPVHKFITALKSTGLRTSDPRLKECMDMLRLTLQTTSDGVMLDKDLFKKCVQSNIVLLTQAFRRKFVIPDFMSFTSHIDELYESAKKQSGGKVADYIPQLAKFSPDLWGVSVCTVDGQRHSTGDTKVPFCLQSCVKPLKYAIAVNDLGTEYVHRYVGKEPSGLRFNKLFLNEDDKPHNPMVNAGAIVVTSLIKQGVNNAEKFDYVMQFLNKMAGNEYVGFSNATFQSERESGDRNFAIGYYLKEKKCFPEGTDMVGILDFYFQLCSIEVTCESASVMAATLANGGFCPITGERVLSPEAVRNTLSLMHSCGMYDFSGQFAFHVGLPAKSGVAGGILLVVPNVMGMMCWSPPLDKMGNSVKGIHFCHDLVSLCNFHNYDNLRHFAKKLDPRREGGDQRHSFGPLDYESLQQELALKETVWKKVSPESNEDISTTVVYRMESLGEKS

A549 cells = experiment: Proliferation Assay (A549 viability, Cell Titer Fluor, 72 hours); assay type: cell-based; conditions: Homo sapiens, A549, 72 h
Summary of the method: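 A549 cells seeded at 1000 cells/well, rested 24 h, then exposed to compound in 0.5% DMSO for 72 h at 37 °C. Viability read by Cell Titer Fluor fluorescence; IC50 from four-parameter logistic fit.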

Row | Compound | IC50 [1] | EC50 (A549 cells)
1 | O=C(NCc1ccccc1)c1nnc(CCCCc2ccc(NC(=O)[C@@H](O)c3ccccc3)nn2)s1 [Example 29, N-benzyl-5-(4-{6-[(2S)-2-hydroxy-2-phenylacetamido]pyridazin-3-yl}butyl)-1,3,4-thiadiazole-2-carboxamide] | < 100 nM | < 100 nM
2 | O=C(NCc1cccc(OC(F)(F)F)c1)c1cn(CCCCn2cc(C(=O)NC[C@@H](O)c3ccccc3)nn2)nn1 [Example 138, N-[(2S)-2-hydroxy-2-phenylethyl]-1-{4-[4-({[3-(trifluoromethoxy)phenyl]methyl}carbamoyl)-1H-1,2,3-triazol-1-yl]butyl}-1H-1,2,3-triazole-4-carboxamide] | 100 to 500 nM | 100 to 500 nM
3 | Cc1ccc(CNC(=O)c2cn(CCC(F)Cn3cc(NC(=O)Cc4cccc(OC(F)(F)F)c4)nn3)nn2)cn1 (stereo not shown) [Example 328, 1-[3-fluoro-4-(4-{2-[3-(trifluoromethoxy)phenyl]acetamido}-1H-1,2,3-triazol-1-yl)butyl]-N-[(6-methylpyridin-3-yl)methyl]-1H-1,2,3-triazole-4-carboxamide] | < 100 nM | < 100 nM
4 | CC(C)(O)CNC(=O)c1nnc(CCCCn2cc(C(=O)NCc3cccc(OC(F)(F)F)c3)nn2)s1 [Example 48, N-(2-hydroxy-2-methylpropyl)-5-{4-[4-({[3-(trifluoromethoxy)phenyl]methyl}carbamoyl)-1H-1,2,3-triazol-1-yl]butyl}-1,3,4-thiadiazole-2-carboxamide] | 500 to 5000 nM | 500 to 5000 nM
5 | CNC(=O)c1cn(CCCCc2nnc(NC(=O)Cc3cccc(OC(F)(F)F)c3)s2)nn1 [Example 2, N-Methyl-1-(4-(5-(2-(3-(trifluoromethoxy)phenyl)acetamido)-1,3,4-thiadiazol-2-yl)butyl)-1H-1,2,3-triazole-4-carboxamide] | < 100 nM | < 100 nM
6 | CNC(=O)c1cn(CCCCc2ccc(NC(=O)CN3CCN(c4cccc(OC(F)(F)F)c4)CC3=O)nn2)nn1 [Example 227, N-methyl-1-(4-(6-(2-(2-oxo-4-(3-(trifluoromethoxy)phenyl)piperazin-1-yl)acetamido)pyridazin-3-yl)butyl)-1H-1,2,3-triazole-4-carboxamide] | < 100 nM | < 100 nM
7 | CNC(=O)c1cn(C[C@H](F)CCc2ccc(NC(=O)Cc3cc(OC4CCOCC4)ccn3)nn2)nn1 [Example 271, (R)-1-(2-fluoro-4-(6-(2-(4-((tetrahydro-2H-pyran-4-yl)oxy)pyridin-2-yl)acetamido)pyridazin-3-yl)butyl)-N-methyl-1H-1,2,3-triazole-4-carboxamide] | < 100 nM | < 100 nM
8 | O=C(Cc1ccccn1)Nc1nnc(CCC(F)Cn2cc(C(=O)NCc3cc(OC(F)(F)F)ccc3F)nn2)s1 (stereo not shown) [Example 514, 1-(2-fluoro-4-{5-[2-(pyridin-2-yl)acetamido]-1,3,4-thiadiazol-2-yl}butyl)-N-{[2-fluoro-5-(trifluoromethoxy)phenyl]methyl}-1H-1,2,3-triazole-4-carboxamide] | < 100 nM | < 100 nM
9 | O=C(Cc1cc(Cl)ccc1F)Nc1cn(CCCCn2cc(C(=O)NCc3cccc(OC(F)(F)F)c3)nn2)nn1 [Example 385, 1-(4-{4-[2-(5-chloro-2-fluorophenyl)acetamido]-1H-1,2,3-triazol-1-yl}butyl)-N-{[3-(trifluoromethoxy)phenyl]methyl}-1H-1,2,3-triazole-4-carboxamide] | < 100 nM | < 100 nM
10 | O=C(NCc1cccc(OC(F)(F)F)c1)c1cn(CCCCc2nnc(C(=O)NC3COC3)s2)nn1 [Example 51, N-(oxetan-3-yl)-5-{4-[4-({[3-(trifluoromethoxy)phenyl]methyl}carbamoyl)-1H-1,2,3-triazol-1-yl]butyl}-1,3,4-thiadiazole-2-carboxamide] | 100 to 500 nM | 500 to 5000 nM
11 | Cc1ccc(CNC(=O)c2cn(CCCCn3cc(NC(=O)Cc4cc(OC(F)(F)F)ccc4F)nn3)nn2)cn1 [Example 383, 1-[4-(4-{2-[2-fluoro-5-(trifluoromethoxy)phenyl]acetamido}-1H-1,2,3-triazol-1-yl)butyl]-N-[(6-methylpyridin-3-yl)methyl]-1H-1,2,3-triazole-4-carboxamide] | < 100 nM | < 100 nM
12 | O=C(NCc1cncc(C(F)(F)F)c1)c1cn(CC(F)CCc2nnc(C(=O)NCCC(F)(F)F)s2)nn1 (stereo not shown) [Example 512, 5-{3-fluoro-4-[4-({[5-(trifluoromethyl)pyridin-3-yl]methyl}carbamoyl)-1H-1,2,3-triazol-1-yl]butyl}-N-(3,3,3-trifluoropropyl)-1,3,4-thiadiazole-2-carboxamide] | 100 to 500 nM | 100 to 500 nM
13 | O=C(NCc1cncc(C(F)(F)F)c1)c1cn(CCCCn2cc(C(=O)NCc3cncc(C(F)(F)F)c3)nn2)nn1 [Example 140, N-{[5-(trifluoromethyl)pyridin-3-yl]methyl}-1-{4-[4-({[5-(trifluoromethyl)pyridin-3-yl]methyl}carbamoyl)-1H-1,2,3-triazol-1-yl]butyl}-1H-1,2,3-triazole-4-carboxamide] | < 100 nM | < 100 nM
14 | O=C(NCc1cccc(OC(F)(F)F)c1)c1cn(CCCCc2nnc(C(=O)NCC3COC3)s2)nn1 [Example 50, N-(oxetan-3-ylmethyl)-5-{4-[4-({[3-(trifluoromethoxy)phenyl]methyl}carbamoyl)-1H-1,2,3-triazol-1-yl]butyl}-1,3,4-thiadiazole-2-carboxamide] | 100 to 500 nM | 500 to 5000 nM
15 | O=C(NCc1cccc(CO)c1)c1cn(CCCCn2cc(C(=O)NCc3cc(C(F)(F)F)ccn3)nn2)nn1 [Example 113, 1-{4-[4-({[3-(hydroxymethyl)phenyl]methyl}carbamoyl)-1H-1,2,3-triazol-1-yl]butyl}-N-{[4-(trifluoromethyl)pyridin-2-yl]methyl}-1H-1,2,3-triazole-4-carboxamide] | < 100 nM | 500 to 5000 nM
16 | O=C(NCc1cccc(OC(F)(F)F)c1)c1cn(CCCCn2cc(C(=O)NCC3CCCOC3)nn2)nn1 (stereo not shown) [Example 117, N-(oxan-3-ylmethyl)-1-{4-[4-({[3-(trifluoromethoxy)phenyl]methyl}carbamoyl)-1H-1,2,3-triazol-1-yl]butyl}-1H-1,2,3-triazole-4-carboxamide] | 100 to 500 nM | 100 to 500 nM
17 | O=C(NCc1cccc(F)c1)c1cn(CCC(F)Cn2cc(C(=O)NCc3cc(C(F)(F)F)ccn3)nn2)nn1 (stereo not shown) [Example 466, 1-[2-fluoro-4-(4-{[(3-fluorophenyl)methyl]carbamoyl}-1H-1,2,3-triazol-1-yl)butyl]-N-{[4-(trifluoromethyl)pyridin-2-yl]methyl}-1H-1,2,3-triazole-4-carboxamide] | < 100 nM | < 100 nM
18 | CNC(=O)c1cn(CC(F)CCc2ccc(NC(=O)Cc3cncc(OC4CC(F)(F)C4)c3)nn2)nn1 (stereo not shown) [Example 245, 1-(4-(6-(2-(5-(3,3-difluorocyclobutoxy)pyridin-3-yl)acetamido)pyridazin-3-yl)-2-fluorobutyl)-N-methyl-1H-1,2,3-triazole-4-carboxamide] | < 100 nM | < 100 nM
19 | O=C(NCc1cncc(C(F)(F)F)c1)c1cn(CCCCn2cc(C(=O)NCC3CCCO3)nn2)nn1 (stereo not shown) [Example 92, N-(oxolan-2-ylmethyl)-1-{4-[4-({[5-(trifluoromethyl)pyridin-3-yl]methyl}carbamoyl)-1H-1,2,3-triazol-1-yl]butyl}-1H-1,2,3-triazole-4-carboxamide] | 500 to 5000 nM | 500 to 5000 nM
20 | O=C(NCc1ccc(C(F)(F)F)nc1)c1cn(CCC(F)Cn2cc(C(=O)NCc3cc(OC(F)(F)F)ccc3F)nn2)nn1 (stereo not shown) [Example 421, 1-{2-fluoro-4-[4-({[6-(trifluoromethyl)pyridin-3-yl]methyl}carbamoyl)-1H-1,2,3-triazol-1-yl]butyl}-N-{[2-fluoro-5-(trifluoromethoxy)phenyl]methyl}-1H-1,2,3-triazole-4-carboxamide] | < 100 nM | < 100 nM
21 | O=C(Cc1cc(Cl)ccc1F)Nc1cn(CCCCn2cc(C(=O)NCc3cc(OC(F)(F)F)ccc3F)nn2)nn1 [Example 386, 1-(4-{4-[2-(5-chloro-2-fluorophenyl)acetamido]-1H-1,2,3-triazol-1-yl}butyl)-N-{[2-fluoro-5-(trifluoromethoxy)phenyl]methyl}-1H-1,2,3-triazole-4-carboxamide] | < 100 nM | < 100 nM
22 | CC(C)CC(=O)NCc1cn(CCCCn2cc(C(=O)NCc3cccc(OC(F)(F)F)c3)nn2)nn1 [Example 55, l-(4-{4-[(3-methylbutanamido)methyl]-1H-1,2,3-triazol-1-yl}butyl)-N-{[3-(trifluoromethoxy)phenyl]methyl}-1H-1,2,3-triazole-4-carboxamide] | 100 to 500 nM | 500 to 5000 nM
23 | O=C(NCc1cc(OC(F)(F)F)ccc1F)c1cn(CCC(F)Cn2cc(C(=O)NCc3cc(C(F)(F)F)ccn3)nn2)nn1 (stereo not shown) [Example 426, 1-{2-fluoro-4-[4-({[2-fluoro-5-(trifluoromethoxy)phenyl]methyl}carbamoyl)-1H-1,2,3-triazol-1-yl]butyl}-N-{[4-(trifluoromethyl)pyridin-2-yl]methyl}-1H-1,2,3-triazole-4-carboxamide] | < 100 nM | < 100 nM
24 | O=C(Cc1cc(OC(F)(F)F)ccc1F)Nc1cn(CCCCn2cc(C(=O)NCc3cccc(OC(F)(F)F)c3)nn2)nn1 [Example 380, 1-[4-(4-{2-[2-fluoro-5-(trifluoromethoxy)phenyl]acetamido}-1H-1,2,3-triazol-1-yl)butyl]-N-{[3-(trifluoromethoxy)phenyl]methyl}-1H-1,2,3-triazole-4-carboxamide] | < 100 nM | < 100 nM
25 | O=C(Cc1cccc(OC(F)(F)F)c1)Nc1cn(CC(F)CCn2cc(C(=O)NCc3cc(C(F)(F)F)ccn3)nn2)nn1 (stereo not shown) [Example 394] | < 100 nM | < 100 nM
26 | O=C(Cc1cccc(OC(F)(F)F)c1)Nc1nnc(CCC(F)Cn2cc(C(=O)NCC3COC3)nn2)s1 (stereo not shown) [Example 558, 1-[2-fluoro-4-(5-{2-[3-(trifluoromethoxy)phenyl]acetamido}-1,3,4-thiadiazol-2-yl)butyl]-N-(oxetan-3-ylmethyl)-1H-1,2,3-triazole-4-carboxamide] | < 100 nM | 500 to 5000 nM
